Reference: US20140296212A1, “SUBSTITUTED PHENOXYPROPYLCYCLOAMINE DERIVATIVES AS HISTAMINE-3 (H3) RECEPTOR LIGANDS” (CEPHALON, INC., priority 2009, published 2014)

Experiments:
[1] = biological target: T1, human H3 receptor (Homo sapiens, UniProt Q9Y5N1); experiment: Human H3 radioligand binding ([3H]-N-alpha-methylhistamine, SPA); conditions: membranes of CHO cells expressing human H3
T1 construct: expressed in transfected cells
Procedure, shortened: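 Membranes from H3-expressing cells (10 μg protein/well) in 50 mM Tris HCl pH 7.4, 5 mM MgCl2, 0.1% BSA with ~1 nM [3H]-N-alpha-methylhistamine and compound (0.01 nM–30 μM), SPA beads, 4 h, room temperature, dark. Non-specific binding defined with 10 μM clobenpropit; bound radioligand read by scintillation counting.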

[2] = biological target: T2, rat histamine H3 receptor (Rattus norvegicus, UniProt Q9QYN8); experiment: Rat H3 radioligand binding ([3H]-N-alpha-methylhistamine, SPA); conditions: membranes of CHO-A3 cells expressing rat H3; [3H]-N-alpha-methylhistamine; read-out: Rat H3 Ki
T2 construct: encoding the entire 445-amino-acid rat histamine H3 receptor; expressed in transfected cells
T2 sequence (Q9QYN8 whole entry): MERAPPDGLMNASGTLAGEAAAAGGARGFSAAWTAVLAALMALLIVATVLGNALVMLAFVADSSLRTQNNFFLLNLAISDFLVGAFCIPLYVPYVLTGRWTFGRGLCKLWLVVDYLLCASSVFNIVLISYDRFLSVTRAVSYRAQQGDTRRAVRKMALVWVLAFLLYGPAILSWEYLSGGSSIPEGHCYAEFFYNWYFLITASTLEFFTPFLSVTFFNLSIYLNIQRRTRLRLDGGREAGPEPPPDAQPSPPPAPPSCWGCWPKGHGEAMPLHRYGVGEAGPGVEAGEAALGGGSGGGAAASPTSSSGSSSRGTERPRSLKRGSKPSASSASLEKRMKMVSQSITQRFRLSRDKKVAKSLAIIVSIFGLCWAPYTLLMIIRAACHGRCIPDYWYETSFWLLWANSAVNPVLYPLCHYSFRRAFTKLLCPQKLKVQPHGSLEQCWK
Procedure, shortened: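 Membranes from CHO-A3 cells stably expressing full-length rat H3 receptor (445 aa) incubated with ~1 nM [3H]-N-alpha-methylhistamine and compound (0.01 nM–30 μM) in 50 mM Tris HCl pH 7.4, 5 mM MgCl2, 0.1% BSA, 4 h, room temperature; SPA bead read-out. Non-specific binding defined with 10 μM clobenpropit.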

T1 sequence (Q9Y5N1 whole entry): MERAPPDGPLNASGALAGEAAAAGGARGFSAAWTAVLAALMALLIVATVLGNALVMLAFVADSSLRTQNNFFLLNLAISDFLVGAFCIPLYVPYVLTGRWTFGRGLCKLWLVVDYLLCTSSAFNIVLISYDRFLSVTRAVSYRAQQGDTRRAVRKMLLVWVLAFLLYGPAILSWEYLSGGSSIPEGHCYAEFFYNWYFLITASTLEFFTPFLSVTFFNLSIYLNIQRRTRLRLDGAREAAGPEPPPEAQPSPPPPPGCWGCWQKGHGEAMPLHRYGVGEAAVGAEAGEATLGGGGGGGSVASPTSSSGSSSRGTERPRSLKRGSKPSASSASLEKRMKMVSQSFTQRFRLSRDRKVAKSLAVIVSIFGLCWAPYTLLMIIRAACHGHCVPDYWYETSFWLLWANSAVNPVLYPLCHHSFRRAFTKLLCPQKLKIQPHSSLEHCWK

| SMILES | Ki [1] [nM] | Ki [2] [nM] | melting point |
| --- | --- | --- | --- |
| O=C(CN1CCOCC1)c1ccc(OCCCN2CCCCC2)cc1 [Example 78, 2-Morpholin-4-yl-1-[4-(3-piperidin-1-yl-propoxy)-phenyl]-ethanone] | 0.1 to 100 | 101 to 500 | 236 to 243 °C |
| C[C@@H]1CCCN1CCCOc1ccc(C(=O)CN2CCN(C(=O)c3cccn3C)CC2)cc1 [Example 84, 2-[4-(1-Methyl-1H-pyrrole-2-carbonyl)-piperazin-1-yl]-1-{4-[3-((R)-2-methyl-pyrrolidin-1-yl)-propoxy]-phenyl}-ethanone] | 0.1 to 100 | 0.1 to 100 | 221 to 224 °C |
| C[C@@H]1CCCN1CCCOc1ccc(C(=O)CN2CCN(c3ccc(C(F)(F)F)cc3)CC2)cc1 [Example 105, 1-{4-[3-((R)-2-Methyl-pyrrolidin-1-yl)-propoxy]-phenyl}-2-[4-(4-trifluoromethyl-phenyl)-piperazin-1-yl]-ethanone] | 0.1 to 100 | 0.1 to 100 | 230 to 233 °C |
| Cc1cc(C(=O)CN2CCN(C(=O)c3ccccc3)CC2)cc(C)c1OCCCN1CCC[C@H]1C [Example 106, 2-(4-Benzoyl-piperazin-1-yl)-1-{3,5-dimethyl-4-[3-((R)-2-methyl-pyrrolidin-1-yl)-propoxy]-phenyl}-ethanone] | 0.1 to 100 | 101 to 500 | 110 to 120 °C |
| CC1(C)CCCN1CCCOc1ccc(C(=O)CN2CCOCC2)cc1 [Example 88, 1-{4-[3-(2,2-Dimethyl-pyrrolidin-1-yl)-propoxy]-phenyl}-2-morpholin-4-yl-ethanone] | > 1000 | > 1000 | 117 to 120 °C |
| Cc1cc(C(=O)CN2CCN(c3ncccn3)CC2)cc(C)c1OCCCN1CCC[C@H]1C [Example 104, 1-{3,5-Dimethyl-4-[3-((R)-2-methyl-pyrrolidin-1-yl)-propoxy]-phenyl}-2-(4-pyrimidin-2-yl-piperazin-1-yl)-ethanone] | 101 to 500 | 501 to 1000 | 155 to 160 °C (dec.) |
| C[C@@H]1CCCN1CCCOc1ccc(C(=O)CN2CCN(C(=O)N3CCOCC3)CC2)cc1 [Example 70, 1-{4-[3-((R)-2-Methyl-pyrrolidin-1-yl)-propoxy]-phenyl}-2-[4-(morpholine-4-carbonyl)-piperazin-1-yl]-ethanone] | 0.1 to 100 | 0.1 to 100 | 116 to 125 °C |
| C[C@@H]1CCCN1CCCOc1ccc(C(=O)CN2CCN(C(=O)N(C)C)CC2)cc1 [Example 79, 4-(2-{4-[3-((R)-2-Methyl-pyrrolidin-1-yl)-propoxy]-phenyl}-2-oxo-ethyl)-piperazine-1-carboxylic acid dimethylamide] | 0.1 to 100 | 0.1 to 100 | 120 to 126 °C |
| C[C@@H]1CCCN1CCCOc1ccc(C(=O)CN2CCN(c3ccccc3)CC2)cc1 [Example 91, 1-{4-[3-((R)-2-Methyl-pyrrolidin-1-yl)-propoxy]-phenyl}-2-(4-phenyl-piperazin-1-yl)-ethanone] | 0.1 to 100 | 0.1 to 100 | 145 to 150 °C |
| C[C@@H]1CCCN1CCCOc1ccc(C(=O)CN2CCC(F)(F)CC2)cc1 [Example 44, 2-(4,4-Difluoro-piperidin-1-yl)-1-{4-[3-((R)-2-methyl-pyrrolidin-1-yl)-propoxy]-phenyl}-ethanone] | 0.1 to 100 | 0.1 to 100 | 127 to 140 °C |
| C[C@@H]1CCCN1CCCOc1ccc(C(=O)CN2CCN(C(=O)C3CCCCC3)CC2)cc1 [Example 93, 2-(4-Cyclohexanecarbonyl-piperazin-1-yl)-1-{4-[3-((R)-2-methyl-pyrrolidin-1-yl)-propoxy]-phenyl}-ethanone] | 0.1 to 100 | 0.1 to 100 | 230 to 232 °C |
| C[C@@H]1CCCN1CCCOc1ccc(C(=O)CN2CCN(C(=O)c3ccc(Cl)cc3)CC2)cc1 [Example 100, 2-[4-(4-Chloro-benzoyl)-piperazin-1-yl]-1-{4-[3-((R)-2-methyl-pyrrolidin-1-yl)-propoxy]-phenyl}-ethanone] | 0.1 to 100 | 0.1 to 100 | 233 to 236 °C |

More lines, now with the values ahead:

| Ki [1] [nM] | Ki [2] [nM] | melting point | SMILES |
| --- | --- | --- | --- |
| 101 to 500 | 501 to 1000 | 125 to 135 °C | C[C@@H]1CCCN1CCCOc1cccc(C(=O)CN2CCN(C(=O)c3ccccc3)CC2)c1 [Example 153, 2-(4-Benzoyl-piperazin-1-yl)-1-{3-[3-((R)-2-methyl-pyrrolidin-1-yl)-propoxy]-phenyl}-ethanone] |
| 0.1 to 100 | 0.1 to 100 | 86 °C | C[C@@H]1CCCN1CCCOc1ccc(C(=O)CN2CCN(S(C)(=O)=O)CC2)cc1F [Example 122, 1-{3-Fluoro-4-[3-((R)-2-methyl-pyrrolidin-1-yl)-propoxy]-phenyl}-2-(4-methanesulfonyl-piperazin-1-yl)-ethanone] |
| 0.1 to 100 | 0.1 to 100 | 75 °C | CC(C)C(=O)N1CCN(CC(=O)c2ccc(OCCCN3CCC[C@H]3C)c(F)c2)CC1 [Example 121, 1-[4-(2-{3-Fluoro-4-[3-((R)-2-methyl-pyrrolidin-1-yl)-propoxy]-phenyl}-2-oxoethyl)-piperazin-1-yl]-2-methyl-propan-1-one] |
| 0.1 to 100 | 0.1 to 100 | 117 to 119 °C | C[C@@H]1CCCN1CCCOc1ccc(C(=O)CN2CCN(C(=O)c3ccccc3-c3ccccc3)CC2)cc1 [Example 152, 2-[4-(Biphenyl-2-carbonyl)-piperazin-1-yl]-1-{4-[3-((R)-2-methyl-pyrrolidin-1-yl)-propoxy]-phenyl}-ethanone] |
| 0.1 to 100 | 0.1 to 100 | 198 to 199 °C | C[C@@H]1CCCN1CCCOc1ccc(C(=O)CN2CCN(C(=O)OC(C)(C)C)CC2)cc1 [Example 117, 4-(2-{4-[3-((R)-2-Methyl-pyrrolidin-1-yl)-propoxy]-phenyl}-2-oxo-ethyl)-piperazine-1-carboxylic acid tert-butyl ester] |
| 0.1 to 100 | 0.1 to 100 | 214 to 217 °C | C[C@@H]1CCCN1CCCOc1ccc(C(=O)CN2CCN(C(=O)c3cc4ccccc4s3)CC2)cc1 [Example 124, 2-[4-(Benzo[b]thiophene-2-carbonyl)-piperazin-1-yl]-1-{4-[3-((R)-2-methyl-pyrrolidin-1-yl)-propoxy]-phenyl}-ethanone] |
| 0.1 to 100 | 0.1 to 100 | 88 to 90.5 °C | C[C@@H]1CCCN1CCCOc1ccc(C(=O)CN2CCN(C(=O)c3ccc(Cl)c(Cl)c3)CC2)cc1 [Example 129, 2-[4-(3,4-Dichloro-benzoyl)-piperazin-1-yl]-1-{4-[3-((R)-2-methyl-pyrrolidin-1-yl)-propoxy]-phenyl}-ethanone] |
| 0.1 to 100 | 0.1 to 100 | 231.5 to 235 °C | Cc1cc(C(=O)CN2CCN(c3ncccn3)CC2)ccc1OCCCN1CCC[C@H]1C [Example 130, 1-{3-Methyl-4-[3-((R)-2-methyl-pyrrolidin-1-yl)-propoxy]-phenyl}-2-(4-pyrimidin-2-yl-piperazin-1-yl)-ethanone] |
| 0.1 to 100 | 101 to 500 | 112 to 114 °C | C[C@@H]1CCCN1CCCOc1ccc(C(=O)CN2CCN(c3ncccn3)CC2)cc1Cl [Example 125, 1-{3-Chloro-4-[3-((R)-2-methyl-pyrrolidin-1-yl)-propoxy]-phenyl}-2-(4-pyrimidin-2-yl-piperazin-1-yl)-ethanone] |
| 0.1 to 100 | 101 to 500 | 79 to 85 °C | Cc1cc(C(=O)CN2CCNC(=O)C2)ccc1OCCCN1CCC[C@H]1C [Example 150, 4-(2-{3-Methyl-4-[3-((R)-2-methyl-pyrrolidin-1-yl)-propoxy]-phenyl}-2-oxo-ethyl)-piperazin-2-one] |
| 0.1 to 100 | 0.1 to 100 | 219 °C | C[C@@H]1CCCN1CCCOc1ccc(C(=O)CN2CCN(c3ncccn3)CC2)cc1F [Example 119, 1-{3-Fluoro-4-[3-((R)-2-methyl-pyrrolidin-1-yl)-propoxy]-phenyl}-2-(4-pyrimidin-2-yl-piperazin-1-yl)-ethanone] |
| 0.1 to 100 | 101 to 500 | 130 to 143 °C | C[C@@H]1CCCN1CCCOc1ccc(C(=O)CN2CCC(F)(F)CC2)cc1Cl [Example 134, 1-{3-Chloro-4-[3-((R)-2-methyl-pyrrolidin-1-yl)-propoxy]-phenyl}-2-(4,4-difluoro-piperidin-1-yl)-ethanone] |
| 0.1 to 100 | 0.1 to 100 | 166 to 168 °C | C[C@@H]1CCCN1CCCOc1ccc(C(=O)CN2CCCc3ccccc32)cc1 [Example 108, 2-(3,4-Dihydro-2H-quinolin-1-yl)-1-{4-[3-((R)-2-methyl-pyrrolidin-1-yl)-propoxy]-phenyl}-ethanone] |
| 0.1 to 100 | 0.1 to 100 | 130 to 137 °C | C[C@@H]1CCCN1CCCOc1ccc(C(=O)CN2CCN(C(=O)c3ccccc3)CC2)cc1Cl [Example 113, 2-(4-Benzoyl-piperazin-1-yl)-1-{3-chloro-4-[3-((R)-2-methyl-pyrrolidin-1-yl)-propoxy]-phenyl}-ethanone] |
